We go through two compounds from patent US20090069441A1, “Motuporamine Mimic Agents” (priority 2006, published 2009).

Read-outs that look alike come from different tables or passages of the source.

One assay has as its system L1210 cells. The assay can be described thus: Cytotoxicity (cell growth, MTT) in L1210 cells. Type of assay: cell-based, mouse. Particulars: Mus musculus, read-out: L1210 IC50. From the text: (§1) In terms of Table 1, L1210 cells are mouse leukemia cells and are the gold standard in terms of evaluating polyamine cytotoxicity data due to a plethora of prior data in this cell line for other polyamine structures. Clearly 7a was similar in all respects to 4a (Table 1). […] The lower the Ki value, the higher the affinity of the drug for the polyamine transporter (PAT) on the cell surface. Chinese hamster ovary (CHO) cells and a mutant line without an active PAT (CHO-MG) also evaluated the PAT selectivity of these drugs.
Biological Evaluation. Once synthesized, the conjugates were screened for cytotoxicity in L1210, CHO and CHO-MG cells. L1210 (mouse leukemia) cells were selected to enable comparisons with the published IC50 and Ki values for a variety of polyamine substrates. Chinese Hamster Ovary (CHO) cells were chosen along with a mutant PAT deficient cell line (CHO-MG) in order to comment on selective transport via the PAT (Wang et al, J. Med. Chem. 2003, 46, 2663-2671; Wang et al, J. Med. Chem. 2003, 46, 2672-2682; Wang et al., J. Med. Chem. 2003, 46, 5129-5138; Delcros et al., J. Med. Chem., 2002, 45, 5098-5111).
L1210 IC50 and Ki studies. […] The Ki values in Table 3 were determined for [^14C]spermidine uptake and reflect the affinity of the polyamine derivative for the polyamine transporter on the cell surface. With both parameters, one can determine whether high affinity for the transporter (e.g., low Ki value) translated into high cytotoxicity (e.g., low IC50 value), etc.
(§2) Biological studies. Murine leukemia cells (L1210), CHO and CHO-MG cells were grown in RPMI medium supplemented with 10% fetal calf serum, glutamine (2 mM), penicillin (100 U/mL), streptomycin (50 μg/mL). L-Proline (2 μg/mL) was added to the culture medium for CHO-MG cells. Cells were grown at 37° C. under a humidified 5% CO2 atmosphere. Aminoguanidine (AG, 2 mM) was added to the culture medium to prevent oxidation of the drugs by the enzyme (bovine serum amine oxidase) present in calf serum. Trypan blue staining was used to determine cell viability before the initiation of a cytotoxicity experiment. Cells in early to mid log-phase were used. IC50 determinations. Cell growth was assayed in sterile 96-well microtiter plates (Becton-Dickinson, Oxnard, Calif., USA). L1210 cells were seeded at 5e^4 cells/mL of medium (100 μL/well). CHO and CHO-MG cells were plated at 2e^3 cells/mL. Drug solutions (10 μL per well) of appropriate concentration were added at the time of seeding for L1210 cells and after an overnight incubation for the CHO cell lines. After exposure to the drug for 48 hr, cell growth was determined by measuring formazan formation from 3-(4,5-dimethylthiazol-2-yl)2,5-diphenyltetrazolium using a Titertek Multiskan MCC/340 microplate reader for absorbance (540 nm) measurements (Mosmann, T., J. Immunol. Methods 1983, 65, 55-63).

The subject of a further assay is CHO cells. The assay can be described thus: Cytotoxicity in CHO cells. The assay is classed as cell-based, Chinese hamster. The settings on record: for IC50: Cricetulus griseus, CHO.
Excerpt: as §1
(§3) CHO and CHO-MG studies. Chinese hamster ovary (CHO) cells were chosen along with a mutant cell line (CHO-MG) in order to comment on how the synthetic conjugates gain access to cells. The CHO-MG cell line is polyamine-transport deficient and was isolated after selection for growth resistance to methylglyoxalbis(guanylhydrazone), MGBG, (CH3C[═N—NHC(═NH)NH2]CH[═N—NHC(═NH)NH2]) using a single-step selection after mutagenesis with ethylmethanesulfonate (Mandel et al., J. Cell. Physiol., 1978, 97, 335-344; Byers et al., Biochem. J. 1989, 263, 745-752).
In contrast, the parent CHO cell line represents a cell type with high PAT activity. Comparison of conjugate cytotoxicity in these two CHO lines provided an important screen to detect selective conjugate delivery via the PAT. For example, a conjugate with high utilization of the polyamine transporter would be very toxic to CHO cells, but less so to CHO-MG cells. In short, highly-selective PAT ligands should give high (CHO-MG/CHO) IC50 ratios.
as §2, with “Aminoguanidine (AG, 2 mM) was added to the culture medium to prevent oxidation of the drugs by the enzyme (bovine serum amine oxidase) present in calf serum.” left out

The test system of a further assay is CHO-MG cells. The assay can be described thus: Cytotoxicity in PAT-deficient CHO-MG cells. The assay is classed as cell-based, Chinese hamster. Particulars: Cricetulus griseus, CHO-MG.
Excerpt: as §1, §3
For the purposes of this study, the CHO-MG cell line represents cells with no PAT activity and provided a model for alternative modes of entry or action, which are independent of PAT. These alternative modes of entry include passive diffusion or utilization of another transporter. The alternative modes of action may also include interactions on the outer surface of the plasma membrane or other membrane receptor interactions.
as §2, with “Aminoguanidine (AG, 2 mM) was added to the culture medium to prevent oxidation of the drugs by the enzyme (bovine serum amine oxidase) present in calf serum.” left out

On to `CCN(CCCNCCCN)Cc1c2ccccc2cc2ccccc12` [Compound 7a, N-(3-Amino-propyl)-N′-anthracen-9-ylmethyl-N′-ethyl-propane-1,3-diamine], for which the IC50 in the assay on L1210 cells (L1210, 48 h incubation, new data) turned out to be 2.2 µM; in the assay with CHO cells (48 h incubation, new data, read-out: CHO IC50), 5.3 µM; in the assay on CHO-MG cells (48 h incubation, new data, read-out: CHO-MG IC50) it was 4 µM. Further, the “IC50 Ratio (CHO-MG/CHO), a measure of PAT selectivity” value in the assay with CHO cells (new data) was 0.8.
As to `NCCCCNCCCCNCc1c2ccccc2cc2ccccc12` [Compound 6b], the IC50 is 0.3 µM in the assay on L1210 cells (L1210, in the presence of AG, 48 h at 37° C.); 0.3 µM with L1210 cells (L1210 experiments, no added SPD); 1.74 µM in the assay with CHO cells (absence of AG, 48 h, read-out: CHO IC50 w/o AG); 0.45 µM with CHO cells (in the presence of AG, 48 h at 37° C., read-out: CHO IC50); 7.05 µM with CHO-MG cells (absence of AG, 48 h, read-out: CHO-MG IC50 w/o AG); 66.7 µM in the assay on CHO-MG cells (in the presence of AG, 48 h at 37° C., read-out: CHO-MG IC50). Also, the “CHOMG/CHO IC50 ratio in the absence of AG” value with CHO cells (absence of AG) was found to be 4. Further, the “IC50 Ratio (CHO-MG/CHO) w/o AG” value with CHO cells (absence of AG) was 4. For the same compound, the “IC50 Ratio (CHO-MG/CHO), a measure of PAT selectivity” value in the assay with CHO cells (in the presence of AG) is 148. Moreover, the “CHOMG/CHO IC50 ratio” value with CHO cells (with AG) came to 148. Besides, the “IC50 Ratio (CHO-MG/CHO) with AG” value with CHO cells (with AG) amounted to 148.
